In ChEMBL document CHEMBL5380850, “Discovery of the First Raptor (Regulatory-Associated Protein of mTOR) Inhibitor as a New Type of Antiadipogenic Agent” (J Med Chem, 2023):
Activity calls are given as the source filed them. The rule behind the calls is not given here.

Legend:
Mus musculus [1] = experiment: Anti-obesity activity in high fat diet-induced obese C57BL/6J mouse assessed as reduction in visceral fat content by measuring subcutis white adipose tissue weight at 40 mg/kg, ip administered every two days for 46 days; format: functional, organism-based; conditions: time 46.0 day
mTORC1 (Mus musculus) [2] = target: mTORC1 (Mus musculus) (UniProt Q9JLN9); experiment: Inhibition of mTORC1 formation in mouse 3T3-L1 cells assessed as Raptor expression level at 10 uM incubated for 24 hrs by reciprocal co-immunoprecipitation assay; format: cell-based
Mus musculus [3] = experiment: In vivo inhibition of mTOR signalling in high fat diet-induced obese C57BL/6J mouse model assessed as decrease in mTOR phosphorylation at S2481 in inguen white adipose tissue at 40 mg/kg, ip administered every two days for 46 days by Western blot analysis; format: functional, organism-based; conditions: time 46.0 day
Mus musculus [4] = experiment: Anti-obesity activity in high fat diet-induced obese C57BL/6J mouse model assessed as increase in glucose clearance at 40 mg/kg, ip administered every two days for 3 weeks pretreated with compound and followed by glucose challenge and measured upto 120 mins by IPGTT assay; format: functional, organism-based
[5] = target: Serine/threonine-protein kinase mTOR (Mus musculus) (UniProt Q9JLN9); experiment: Inhibition of mTOR signalling in mouse 3T3-L1 cells assessed as […] of 4E-BP1 phosphorylation at 0.1 to 10 uM incubated for 24 hrs by Western blot analysis; format: cell-based; conditions: dose 0.1-10 µM
Mus musculus [6] = experiment: Anti-obesity activity in high fat diet-induced obese C57BL/6J mouse model assessed as reduction in blood glucose level at 40 mg/kg, ip administered every two days for 5 weeks pretreated with compound and followed by insulin stimulation and measured upto 120 mins by insulin tolerance test; format: functional, organism-based
Mus musculus [7] = experiment: Anti-obesity activity in high fat diet-induced obese C57BL/6J mouse model assessed as increase in PGC-1alpha expression level in liver at 40 mg/kg, ip administered every two days for 46 days by immunohistochemical analysis; format: functional, organism-based; conditions: time 46.0 day
Mus musculus [8] = experiment: Anti-obesity activity in high fat diet-induced obese C57BL/6J mouse model assessed as increase in COX4 expression level in brown adipocyte at 40 mg/kg, ip administered every two days for 46 days by immunohistochemical analysis; format: functional, organism-based; conditions: time 46.0 day
[9] = target: Regulatory-associated protein of mTOR (Homo sapiens, UniProt Q8N122); experiment: Binding affinity to recombinant human Raptor and measured for 200 sec by SPR analysis
Mus musculus [10] = experiment: Anti-obesity activity in high fat diet-induced obese C57BL/6J mouse model assessed as reduction in plasma glucose level at 40 mg/kg, ip administered every two days for 14 days; format: functional, organism-based; conditions: time 14.0 day
3T3-L1 [11] = experiment: Anti-adipogenic activity in mouse 3T3-L1 cells assessed as increase in co-localization of lipid droplets and autophagolysosomes at 10 uM by Bodipy and LysoTracker staining based immunofluorescence analysis; format: functional, cell-based
[12] = Cytotoxicity against mouse 3T3-L1 cells assessed as reduction in cell viability incubated for 24 hrs by MTT assay; format: toxicity, cell-based
[13] = target: Serine/threonine-protein kinase mTOR (Mus musculus) (UniProt Q9JLN9); experiment: Inhibition of mTOR signalling in mouse 3T3-L1 cells assessed as mTOR phosphorylation at S2481 residue at 0.1 to 10 uM incubated for 24 hrs by Western blot analysis; format: cell-based; conditions: dose 0.1-10 µM
Mus musculus [14] = experiment: Anti-obesity activity in high fat diet-induced obese C57BL/6J mouse model assessed as reduction in triglyceride level at 40 mg/kg, ip administered every two days for 46 days; format: functional, organism-based; conditions: time 46.0 day
3T3-L1 [15] = experiment: Anti-adipogenic activity in SiRNA mediated Raptor knockdown mouse 3T3-L1 cells assessed as ACC expression level at 10 uM by Western blot analysis; format: functional, cell-based
3T3-L1 [16] = experiment: Anti-adipogenic activity against mouse 3T3-L1 cells assessed as downregulation of ACC protein expression level at 0.1 to 1 uM incubated for 6 days by Western blot analysis; format: functional, cell-based; conditions: dose 0.1-1 µM, time 6.0 day
3T3-L1 [17] = experiment: Anti-adipogenic activity in SiRNA mediated Raptor knockdown mouse 3T3-L1 cells assessed as decrease in triglyceride level at 10 uM by Oil Red O staining based microscopic analysis; format: functional, cell-based
Mus musculus [18] = experiment: Anti-obesity activity in high fat diet-induced obese C57BL/6J mouse model assessed as increase in COX4 expression level in inguen white adipose tissue at 40 mg/kg, ip administered every two days for 46 days by immunohistochemical analysis; format: functional, organism-based; conditions: time 46.0 day
3T3-L1 [19] = experiment: Anti-adipogenic activity in siRNA-mediated LC3B knockdown mouse 3T3-L1 cells assessed as decrease in triglyceride level at 10 uM by Oil Red O staining based microscopic analysis; format: functional, cell-based
3T3-L1 [20] = experiment: Anti-adipogenic activity against mouse 3T3-L1 cells assessed as downregulation of ACC mRNA expression level at 0.1 to 1 uM incubated for 6 days by RT-qPCR analysis; format: functional, cell-based; conditions: dose 0.1-1 µM, time 6.0 day
[21] = target: Regulatory-associated protein of mTOR (Mus musculus) (UniProt Q8K4Q0); experiment: Binding affinity to Raptor in mouse 3T3-L1 cells assessed thermal stabilization at 10 uM incubated 30 mins by […] analysis
[22] = target: Regulatory-associated protein of mTOR (Mus musculus) (UniProt Q8K4Q0); experiment: Binding affinity to Raptor in mouse 3T3-L1 cells at 50 uM incubated overnight by pull-down assay
mTORC1 (Mus musculus) [23] = target: mTORC1 (Mus musculus) (UniProt Q9JLN9); experiment: Inhibition of mTORC1 formation in siRNA mediated Raptor knockdown mouse 3T3-L1 cells assessed as decrease in phosphorylated 4E-BP1 expression level at 10 uM incubated for 24 hrs by Western blot analysis; format: cell-based
3T3-L1 [24] = experiment: Anti-adipogenic activity against mouse 3T3-L1 cells assessed as downregulation of C/EBPdelta mRNA expression level at 0.1 to 1 uM incubated for 24 hrs by RT-qPCR analysis; format: functional, cell-based; conditions: dose 0.1-1 µM
3T3-L1 [25] = experiment: Anti-adipogenic activity against mouse 3T3-L1 cells at adipogenesis stage assessed as decrease in triglyceride level at 1 uM and measured upto 3 days by Oil Red O staining based spectroscopic analysis; format: functional, cell-based; conditions: time <= 3.0 day
mTORC1 (Mus musculus) [26] = target: mTORC1 (Mus musculus) (UniProt Q9JLN9); experiment: Inhibition of mTORC1 formation in mouse 3T3-L1 cells assessed as increase in phosphorylated-4E-BP1 expression level at 10 uM incubated for 24 hrs by Western blot analysis; format: cell-based
3T3-L1 [27] = experiment: Anti-adipogenic activity in siRNA-mediated LC3B knockdown mouse 3T3-L1 cells assessed as decrease in triglyceride level at 10 uM by Oil Red O staining based spectroscopic analysis; format: functional, cell-based
3T3-L1 [28] = experiment: Anti-adipogenic activity against mouse 3T3-L1 cells assessed as downregulation of C/EBPdelta protein expression level at 0.1 to 1 uM incubated for 24 hrs by Western blot analysis; format: functional, cell-based; conditions: dose 0.1-1 µM
mTORC1 (Mus musculus) [29] = target: mTORC1 (Mus musculus) (UniProt Q9JLN9); experiment: Inhibition of mTORC1 formation in mouse 3T3-L1 cells assessed as increase in 4E-BP1 expression level at 10 uM incubated for 24 hrs by Western blot analysis; format: cell-based
3T3-L1 [30] = experiment: Anti-adipogenic activity against mouse 3T3-L1 cells assessed as downregulation of PPARgamma mRNA expression level at 0.1 to 1 uM incubated for 24 hrs by RT-qPCR analysis; format: functional, cell-based; conditions: dose 0.1-1 µM
3T3-L1 [31] = experiment: Anti-adipogenic activity against mouse 3T3-L1 cells assessed as downregulation of PPARgamma protein expression level at 0.1 to 1 uM incubated for 24 hrs by Western blot analysis; format: functional, cell-based; conditions: dose 0.1-1 µM
3T3-L1 [32] = experiment: Anti-adipogenic activity against mouse 3T3-L1 cells assessed as downregulation of DGAT2 protein expression level at 0.1 to 1 uM incubated for 6 days by Western blot analysis; format: functional, cell-based; conditions: dose 0.1-1 µM, time 6.0 day

Regulatory-associated protein of mTOR (Mus musculus), sequence (Q8K4Q0 whole entry, looked up): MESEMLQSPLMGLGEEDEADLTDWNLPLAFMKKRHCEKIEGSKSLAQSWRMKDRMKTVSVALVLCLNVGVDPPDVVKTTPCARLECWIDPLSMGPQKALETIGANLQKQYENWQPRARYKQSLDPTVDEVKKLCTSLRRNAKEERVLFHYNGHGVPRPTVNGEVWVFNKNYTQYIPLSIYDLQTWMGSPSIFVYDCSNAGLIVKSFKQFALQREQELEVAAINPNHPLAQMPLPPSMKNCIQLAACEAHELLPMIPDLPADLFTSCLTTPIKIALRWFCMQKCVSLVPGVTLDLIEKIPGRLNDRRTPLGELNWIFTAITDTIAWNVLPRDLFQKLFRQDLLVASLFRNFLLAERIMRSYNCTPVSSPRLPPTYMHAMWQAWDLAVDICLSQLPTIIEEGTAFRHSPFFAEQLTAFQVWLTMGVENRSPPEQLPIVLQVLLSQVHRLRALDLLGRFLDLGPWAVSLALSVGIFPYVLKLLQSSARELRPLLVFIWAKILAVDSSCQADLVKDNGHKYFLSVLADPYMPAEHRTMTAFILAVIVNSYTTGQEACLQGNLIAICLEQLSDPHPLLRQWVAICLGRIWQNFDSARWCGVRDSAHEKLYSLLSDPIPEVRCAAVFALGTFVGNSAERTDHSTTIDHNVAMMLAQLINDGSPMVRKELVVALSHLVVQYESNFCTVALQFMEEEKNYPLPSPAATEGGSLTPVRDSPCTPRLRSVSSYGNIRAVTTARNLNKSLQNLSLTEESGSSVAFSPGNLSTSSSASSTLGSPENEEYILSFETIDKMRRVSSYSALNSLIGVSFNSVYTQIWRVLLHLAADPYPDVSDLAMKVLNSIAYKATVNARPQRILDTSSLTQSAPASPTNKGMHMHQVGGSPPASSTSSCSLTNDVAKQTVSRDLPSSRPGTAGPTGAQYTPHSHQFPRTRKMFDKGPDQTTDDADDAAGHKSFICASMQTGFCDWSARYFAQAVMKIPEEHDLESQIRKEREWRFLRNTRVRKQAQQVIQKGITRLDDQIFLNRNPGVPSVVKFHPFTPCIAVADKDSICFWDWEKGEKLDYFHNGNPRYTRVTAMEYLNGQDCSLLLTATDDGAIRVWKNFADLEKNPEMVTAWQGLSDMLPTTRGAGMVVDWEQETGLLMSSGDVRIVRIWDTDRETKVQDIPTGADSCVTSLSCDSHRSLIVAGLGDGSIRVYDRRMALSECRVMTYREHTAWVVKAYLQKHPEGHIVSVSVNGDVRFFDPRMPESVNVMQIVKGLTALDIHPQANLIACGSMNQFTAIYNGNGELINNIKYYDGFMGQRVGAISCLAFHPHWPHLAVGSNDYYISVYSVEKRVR
Regulatory-associated protein of mTOR, sequence (Q8N122 whole entry): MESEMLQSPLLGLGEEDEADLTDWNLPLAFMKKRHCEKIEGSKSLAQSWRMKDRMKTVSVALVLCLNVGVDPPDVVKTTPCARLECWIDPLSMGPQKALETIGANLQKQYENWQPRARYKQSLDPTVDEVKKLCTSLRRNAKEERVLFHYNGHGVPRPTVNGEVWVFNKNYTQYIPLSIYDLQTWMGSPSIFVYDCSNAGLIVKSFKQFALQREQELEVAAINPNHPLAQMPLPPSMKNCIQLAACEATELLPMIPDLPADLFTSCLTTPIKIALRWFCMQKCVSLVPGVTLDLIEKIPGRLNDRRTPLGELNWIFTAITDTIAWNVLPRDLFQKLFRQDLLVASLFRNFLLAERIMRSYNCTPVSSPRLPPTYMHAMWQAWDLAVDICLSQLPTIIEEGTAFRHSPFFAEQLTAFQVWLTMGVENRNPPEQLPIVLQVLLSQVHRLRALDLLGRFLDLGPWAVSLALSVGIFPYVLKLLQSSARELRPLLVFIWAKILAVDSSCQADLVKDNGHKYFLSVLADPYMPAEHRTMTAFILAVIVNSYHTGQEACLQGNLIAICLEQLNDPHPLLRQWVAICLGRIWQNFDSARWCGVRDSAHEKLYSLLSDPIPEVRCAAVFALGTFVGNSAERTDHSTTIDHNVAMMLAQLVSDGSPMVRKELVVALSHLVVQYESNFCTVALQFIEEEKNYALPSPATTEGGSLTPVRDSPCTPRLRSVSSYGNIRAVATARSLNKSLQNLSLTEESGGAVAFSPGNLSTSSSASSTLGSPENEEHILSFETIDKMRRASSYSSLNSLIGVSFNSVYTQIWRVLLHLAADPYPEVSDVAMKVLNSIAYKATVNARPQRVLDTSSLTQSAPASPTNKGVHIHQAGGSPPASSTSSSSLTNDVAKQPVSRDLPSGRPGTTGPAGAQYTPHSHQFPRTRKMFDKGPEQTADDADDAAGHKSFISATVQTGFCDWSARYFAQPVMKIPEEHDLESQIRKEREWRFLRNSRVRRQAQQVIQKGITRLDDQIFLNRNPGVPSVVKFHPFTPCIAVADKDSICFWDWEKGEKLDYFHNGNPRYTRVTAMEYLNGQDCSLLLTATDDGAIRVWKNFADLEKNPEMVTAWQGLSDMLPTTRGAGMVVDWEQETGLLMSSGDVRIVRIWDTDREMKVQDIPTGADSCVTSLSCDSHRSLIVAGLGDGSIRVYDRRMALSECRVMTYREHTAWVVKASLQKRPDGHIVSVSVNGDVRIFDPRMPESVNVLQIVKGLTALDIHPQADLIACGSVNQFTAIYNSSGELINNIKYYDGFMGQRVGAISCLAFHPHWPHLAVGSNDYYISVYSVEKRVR

inhibition (mTORC1 (Mus musculus) [2]): Active
inhibition [5]: Active
Kd [9]: 20.4 µM
inhibition [13]: Active
Activity [21]: Active
Activity [22]: Active
inhibition (mTORC1 (Mus musculus) [23]): Active
inhibition (mTORC1 (Mus musculus) [26]): Active
inhibition (mTORC1 (Mus musculus) [29]): Active
SMILES: C=C(C)[C@@]12OC3(c4ccccc4)O[C@@H]1[C@@H]1[C@H](O)[C@](Cl)(COC(=O)c4ccccc4)[C@@H](O)[C@]4(O)C(=O)C(C)=C[C@H]4[C@@]1(O3)[C@H](C)[C@H]2OC(C)=O
Activity (Mus musculus [1]): Active
inhibition (Mus musculus [3]): Active
Activity (Mus musculus [4]): Active
Activity (Mus musculus [6]): Active
Activity (Mus musculus [7]): Active
Activity (Mus musculus [8]): Active
Activity (Mus musculus [10]): Active
Activity (3T3-L1 [11]): inactive
IC50 at 24 h [12]: > 100 µM
Activity (Mus musculus [14]): Active
Activity (3T3-L1 [15]): Active
Activity (3T3-L1 [16]): Active
Activity (3T3-L1 [17]): Active
Activity (Mus musculus [18]): Active
Activity (3T3-L1 [19]): Active
Activity (3T3-L1 [20]): Active
Activity (3T3-L1 [24]): Active
Activity (3T3-L1 [25]): inactive
Activity (3T3-L1 [27]): Active
Activity (3T3-L1 [28]): Active
Activity (3T3-L1 [30]): Active
Activity (3T3-L1 [31]): Active
Activity (3T3-L1 [32]): Active
